Test results published in US9271974B2, “Use of oxycodone for treating visceral pain” (PURDUE PHARMA L.P., priority 2005, dated 2016).

Key:
Assay type in all cases: in vivo, human
[1] = tested on: muscular pain; assay: Experimental muscular pain (pressure, electrical stimuli in muscle) in healthy volunteers; details: for analgesic effect in muscle versus placebo: oral solution, morphine 30 mg, oxycodone 15 mg, FIG. 1
Excerpt: (§1) The experimental studies referred to below, are based on a comparison of different drugs at healthy volunteers by applying experimental pain, since clinical studies provide insufficient information, partly due to the great difference that exists between patients and partly due to the fact that most diseases produce many symptoms other than pain, which affects the assessment of pain-killing efficacy. Experimental pain can be administered under controlled conditions in healthy volunteers so that this bias can be avoided. However, several experimental stimuli are necessary to simulate the complex clinical situation. It is also necessary to use different opioids to obtain sufficient differentiated knowledge about deep pain on different pain mechanisms, and an assessment of the clinical action spectrum of opioids. For testing the efficacy of different opioids for treating visceral pain a standardized test battery of cutaneous, muscular and visceral stimuli was applied. Blood samples were taken for determination of the opioid concentration in plasma.
In recent years methods by which deep and visceral stimuli can be administered reproducibly have been developed. These methods allow activation of the pain system with different stimuli, with the possibility of activating various types of nerve pathways in the same experiment. In the trial described herein the efficacy of different opioids on different types of stimuli of skin, muscles and bowel in healthy volunteers have been compared. Cutaneous and muscular pain was administered by pressure, current and temperature (skin only). The stimulation of the internal organs was also produced by pressure via a balloon located at the bottom of the oesophagus. The balloon can be distended and produce mechanical stimuli, which feel like mild pain/discomfort. In addition, cold and heat stimuli can be administered by passing water of differing temperature through the balloon. […]

[2] = tested on: visceral pain; assay: Experimental visceral pain, mechanical stimulation of the oesophagus via balloon distension, in healthy volunteers
Excerpt: as §1
(§2) In recent years methods by which deep and visceral stimuli can be administered reproducibly have been developed. These methods allow activation of the pain system with different stimuli, with the possibility of activating various types of nerve pathways in the same experiment. […]

[3] = tested on: visceral pain; assay: Experimental visceral pain, heat stimulation of the oesophagus via hot water into the balloon, in healthy volunteers
Excerpt: as §1, §2

[4] = tested on: cutaneous pain; assay: Experimental cutaneous pain (pressure, electrical, thermal stimuli on skin) in healthy volunteers
Excerpt: as §1, §2

[5] = oral, morphine 30 mg vs oxycodone 15 mg, all modalities tested
[6] = oral oxycodone 15 mg vs morphine 30 mg and placebo, FIG. 2

For CN1CC[C@]23c4c5ccc(O)c4O[C@H]2[C@@H](O)C=C[C@H]3[C@H]1C5 [morphine], the “analgesic effect in muscle versus placebo” value [1] was “significantly more analgesic than placebo”, the “analgesic effect against mechanical stimulation in viscera (oesophagus), in comparison to placebo” value ([2]; oral morphine 30 mg vs placebo) was “a certain analgesic effect” and the “analgesic effect against heat pain stimulation in viscera (oesophagus), in comparison to placebo” value ([3]; oral morphine 30 mg vs placebo) was “a certain analgesic effect”.
In the case of COc1ccc2c3c1O[C@H]1C(=O)CC[C@@]4(O)[C@@H](C2)N(C)CC[C@]314 [oxycodone], the “analgesic effect in the skin versus placebo” value ([4]; oral solution, morphine 30 mg, oxycodone 15 mg, FIG. 1) is reported as “significantly more analgesic than placebo”, the “difference in analgesic effect between morphine and oxycodone in the skin” value [4, 5] is reported as “no significant difference between morphine and oxycodone” and the “analgesic effect in muscle versus placebo” value [1] is reported as “significantly more analgesic than placebo”. For the same compound, the “difference in analgesic effect between morphine and oxycodone in muscle” value [1, 5] was “no significant difference between morphine and oxycodone”, the “analgesic effect against mechanical stimulation in viscera (oesophagus), in comparison to morphine and placebo” value [2, 6] was “significantly better analgesic effect” and the “analgesia against heat pain stimulation in viscera (oesophagus), in comparison to morphine and placebo” value [3, 6] was “significantly greater analgesia”.
